Literature values as cited in patent US10039775B2, “Preparation method for antitumor drug AP26113” (SUZHOU MIRACPHARMA TECHNOLOGY CO., LTD., priority 2015, dated 2018).

Experiments:
[1] = biological target: ALK (Homo sapiens, UniProt Q9UM73); conditions: ratio versus crizotinib
[2] = system: ALK positive nonsmall cell lung cancer; conditions: clinical data; patients with ALK positive nonsmall cell lung cancer, including brain metastases patients
[3] = system: crizotinib resistant ALK mutation; conditions: nine identified crizotinib resistant ALK mutations

Chain of ALK (Q9UM73 19-1620): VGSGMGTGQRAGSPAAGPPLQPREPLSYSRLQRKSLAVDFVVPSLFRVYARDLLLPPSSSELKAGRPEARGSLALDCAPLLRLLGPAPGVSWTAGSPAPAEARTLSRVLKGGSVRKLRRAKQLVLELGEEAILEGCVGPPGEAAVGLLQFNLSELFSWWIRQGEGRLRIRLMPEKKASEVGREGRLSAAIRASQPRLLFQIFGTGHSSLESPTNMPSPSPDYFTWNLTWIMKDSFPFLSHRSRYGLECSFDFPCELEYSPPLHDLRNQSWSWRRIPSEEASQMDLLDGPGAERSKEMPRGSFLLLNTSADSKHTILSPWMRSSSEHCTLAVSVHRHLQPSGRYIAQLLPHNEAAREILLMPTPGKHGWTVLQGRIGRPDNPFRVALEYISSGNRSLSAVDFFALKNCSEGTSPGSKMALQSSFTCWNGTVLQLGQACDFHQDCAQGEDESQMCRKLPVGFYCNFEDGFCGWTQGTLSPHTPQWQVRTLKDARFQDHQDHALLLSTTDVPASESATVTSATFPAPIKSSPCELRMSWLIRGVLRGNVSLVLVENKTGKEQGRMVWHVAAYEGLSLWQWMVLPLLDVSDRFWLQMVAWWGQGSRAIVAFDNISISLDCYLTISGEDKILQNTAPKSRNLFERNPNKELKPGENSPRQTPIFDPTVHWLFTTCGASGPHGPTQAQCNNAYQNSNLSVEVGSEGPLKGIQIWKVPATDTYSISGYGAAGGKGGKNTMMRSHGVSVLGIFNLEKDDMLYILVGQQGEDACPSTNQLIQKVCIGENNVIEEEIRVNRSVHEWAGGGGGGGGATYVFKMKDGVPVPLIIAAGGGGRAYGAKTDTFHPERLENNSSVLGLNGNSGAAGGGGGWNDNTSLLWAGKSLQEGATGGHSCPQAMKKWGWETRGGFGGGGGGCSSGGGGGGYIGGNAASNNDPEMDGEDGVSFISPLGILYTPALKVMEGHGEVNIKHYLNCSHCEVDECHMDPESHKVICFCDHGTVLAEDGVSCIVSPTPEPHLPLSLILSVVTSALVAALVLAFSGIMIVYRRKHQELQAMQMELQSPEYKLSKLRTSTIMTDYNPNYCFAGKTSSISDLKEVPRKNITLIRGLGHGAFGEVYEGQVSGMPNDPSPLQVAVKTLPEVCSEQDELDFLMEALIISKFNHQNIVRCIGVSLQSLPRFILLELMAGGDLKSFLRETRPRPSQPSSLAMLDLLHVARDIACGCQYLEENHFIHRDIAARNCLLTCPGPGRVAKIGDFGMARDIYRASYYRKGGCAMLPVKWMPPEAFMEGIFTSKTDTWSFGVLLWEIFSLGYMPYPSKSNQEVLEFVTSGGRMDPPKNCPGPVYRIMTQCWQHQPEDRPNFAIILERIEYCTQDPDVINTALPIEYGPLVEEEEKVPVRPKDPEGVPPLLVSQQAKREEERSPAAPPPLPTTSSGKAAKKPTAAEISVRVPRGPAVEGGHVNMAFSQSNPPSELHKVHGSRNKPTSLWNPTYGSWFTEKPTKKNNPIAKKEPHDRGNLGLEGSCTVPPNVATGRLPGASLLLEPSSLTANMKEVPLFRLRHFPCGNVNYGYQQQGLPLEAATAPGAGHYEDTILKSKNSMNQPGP

Structure (SMILES): COc1cc(N2CCC(N(C)C)CC2)ccc1Nc1ncc(Cl)c(Nc2ccccc2P(C)(C)=O)n1 [AP26113, 5-chloro-N2-[4-[4-(dimethylamino)-1-piperidyl]-2-methoxyphenyl]-N4-[2-(dimethyl phosphitylate)phenyl]-2,4-diaminopyrimidine]
- inhibitory activity to ALK relative to the inhibitor activity of crizotinib to ALK [1]: about 10 times
- anti-tumor activity on patients [2]: continuous anti-tumor activity
- inhibition of all nine identified crizotinib resistant ALK mutation [3]: can be inhibited
